From US9974306B2, “Herbicidal combinations for tolerant soybean cultures” (priority 2012, dated 2018)

Assays:
GLXMA Protina = test: Post-emergence greenhouse treatment, visual rating of effect on conventional soybean PROTINA; type: in vivo; conditions: for Effect (%): GLXMA Protina
Procedure: (§1) The soybeans were grown under the same conditions as described above. The following three varieties were used in the tests:
(§2) 1) W336—Transgenic soybean plants comprising a chimeric gene encoding a W336 mutant HPPD protein of Pseudomonas fluorescens (U.S. Pat. No. 6,245,968) fused to the optimized transit peptide for chloroplast targeting (U.S. Pat. No. 5,510,471), and under the control of the 35S CaMV promoter (Odell et al., 1985, Nature 313: 810-812) fused to the 5′ enhancer sequence of TEV (Carrington and Freed, 1990, J. Virol. 64: 1590-1597), with as 3′ transcript termination and polyadenylation region that of the CaMV 35S gene (Sanfacon et al., 1991, Genes & Development 5:141-149), abbreviated as “W336 soybean plants” herein. 2) MERLIN—conventional 3) PROTINA—conventional
(§3) Two sets of soybeans reaching different growth stages at application time were prepared: one up to growth stage BBCH 11 (1-2 leaf stage) and the other up to BBCH 13 (3-4 leaf stage). Both soybean sets were treated at the same time (together with the weeds) but they were evaluated separately.
(§4) The applications were performed by post emergence treatments on the planted pots using a spray volume of 300 L water per hectare. The herbicides were applied alone and in combination as in the tables below.
(§5) The trial was conducted in the greenhouse ensuring optimal growing conditions.
(§6) The herbicidal effects were assessed 14 and 24 days following application by visual ratings comparing treated and untreated plants (0%=no effect to 100%=complete die-off).
(§7) The visual ratings are used to calculate interactions between treatments alone and combination treatments according to S. R. Colby, Weeds 15, pages 20 to 22 (1967).

GLXMA GM_W336 = test: Post-emergence greenhouse treatment, visual rating of effect on W336 transgenic (HPPD inhibitor tolerant) soybean; type: in vivo; conditions: for Effect (%): GLXMA GM_W336
Procedure: as §1, §2, §3, §4, §5, §6, §7

BIDPI = test: Post-emergence greenhouse treatment, visual rating of herbicidal effect; type: in vivo, Bidens pilosa
Procedure: (§8) Seeds of grass and broadleaf weeds were sown in pots (diameter: 8 cm) filled with a sandy loam soil. For the herbicide post-emergent treatment, the weeds were grown under optimal conditions up to a growth stage of BBCH 11 (1-2 leaf stage) to 14 (3-4 leaf stage) depending on species. The following weeds were used:
as §4, §5, §6, §7

POLCO = test: as above; type: in vivo, Polygonum convolvulus; conditions: for Effect (%): POLCO, (B1) alone 40 g a.i./ha
Procedure: as §8, §4, §5, §6, §7

PHBPU = test: as above; type: in vivo, Pharbitis purpurea
Procedure: as §8, §4, §5, §6, §7

GLXMA Merlin = test: Post-emergence greenhouse treatment, visual rating of effect on conventional soybean MERLIN; type: in vivo; conditions: for Effect (%): GLXMA Merlin, assessment 24 d
Procedure: as §1, §2, §3, §4, §5, §6, §7

BRAPP = test: Post-emergence greenhouse treatment, visual rating of herbicidal effect; type: in vivo, Brachiaria platyphylla; conditions: for Effect (%): BRAPP
Procedure: as §8, §4, §5, §6, §7

EPHHL = test: as above; type: in vivo, Euphorbia heterophylla
Procedure: as §8, §4, §5, §6, §7

SORHA = test: as above; type: in vivo, Sorghum halepense
Procedure: as §8, §4, §5, §6, §7

SETVI = test: as above; type: in vivo, Setaria viridis; conditions: 1-2 leaf; for Effect: 24 d; for Effect (%): SETVI, assessment 24 d
Procedure: as §8, §4, §5, §6, §7

SETFA = test: as above; type: in vivo, Setaria faberi; conditions: 1-2 leaf
Procedure: as §8, §4, §5, §6, §7

[1] = 1-2 leaf, 14 d, 20 g a.i./ha alone
[2] = 1-2 leaf, 24 d, 20 g a.i./ha alone
[3] = 1-2 leaf, 24 d, 40 g a.i./ha alone
[4] = 1-2 leaf, 24 d, 80 g a.i./ha alone
[5] = 3-4 leaf, 14 d, 20 g a.i./ha alone
[6] = 1-2 leaf, assessment 24 d, (B1) alone 40 g a.i./ha
[7] = 3-4 leaf, assessment 14 d, (B1) alone 20 g a.i./ha
[8] = 3-4 leaf, assessment 14 d, (B1) alone 40 g a.i./ha
[9] = 3-4 leaf, 14 d, 80 g a.i./ha alone
[10] = 1-2 leaf, assessment 24 d, (B1) alone 80 g a.i./ha

## CSc1nnc(C(C)(C)C)c(=O)n1N [(B1), 4-amino-6-tert-butyl-4,5-dihydro-3-methylthio-1,2,4-triazin-5-one]
GLXMA Protina; [1]
  Effect: 20%
GLXMA Protina; [2]
  Effect: 15%
GLXMA Protina; [3]
  Effect: 15%
GLXMA Protina; [4]
  Effect: 40%
GLXMA Protina; 1-2 leaf, 14 d, 80 g a.i./ha
  Effect: 40%
GLXMA Protina; 1-2 leaf, 24 d, 80 g a.i./ha
  Effect: 40%
GLXMA Protina; [5]
  Effect: 25%
GLXMA Protina; 3-4 leaf, 14 d, 20 g a.i./ha
  Effect: 25%
GLXMA Protina; 3-4 leaf, 14 d, 40 g a.i./ha
  Effect: 35%
GLXMA Protina; 3-4 leaf, 24 d, 20 g a.i./ha
  Effect: 35%
GLXMA Protina; [6]
  Effect (%): 15%
GLXMA Protina; [7]
  Effect (%): 25%
GLXMA Protina; [8]
  Effect (%): 35%
GLXMA GM_W336; [1]
  Effect: 20%
GLXMA GM_W336; [2]
  Effect: 10%
GLXMA GM_W336; [3]
  Effect: 10%
GLXMA GM_W336; [4]
  Effect: 30%
GLXMA GM_W336; 1-2 leaf, 14 d, 80 g a.i./ha
  Effect: 25%
GLXMA GM_W336; 1-2 leaf, 24 d, 40 g a.i./ha
  Effect: 10%
GLXMA GM_W336; 1-2 leaf, 24 d, 80 g a.i./ha
  Effect: 30%
GLXMA GM_W336; [5]
  Effect: 35%
GLXMA GM_W336; [9]
  Effect: 35%
GLXMA GM_W336; 3-4 leaf, 14 d, 20 g a.i./ha
  Effect: 35%
GLXMA GM_W336; 3-4 leaf, 14 d, 40 g a.i./ha
  Effect: 35%
GLXMA GM_W336; 3-4 leaf, 24 d, 20 g a.i./ha
  Effect: 30%
GLXMA GM_W336; [6]
  Effect (%): 10%
GLXMA GM_W336; [10]
  Effect (%): 30%
GLXMA GM_W336; [7]
  Effect (%): 35%
GLXMA GM_W336; [8]
  Effect (%): 35%
BIDPI; [2]
  Effect: 5%
BIDPI; [3]
  Effect: 45%
BIDPI; 3-4 leaf, 14 d, 20 g a.i./ha
  Effect: 40%
BIDPI; 3-4 leaf, 24 d, 20 g a.i./ha
  Effect: 5%
BIDPI; BIDPI, 3-4 leaf, assessment 14 d, (B1) alone 20 g a.i./ha
  Effect (%): 40%
POLCO; [4]
  Effect: 20%
POLCO; [5]
  Effect: 10%
POLCO; [9]
  Effect: 40%
POLCO; 3-4 leaf, 14 d, 20 g a.i./ha
  Effect: 10%
POLCO; 3-4 leaf, 24 d, 20 g a.i./ha
  Effect: 10%
POLCO; 1-2 leaf, assessment 24 d
  Effect (%): 15%
POLCO; 3-4 leaf, assessment 14 d
  Effect (%): 40%
PHBPU; [2]
  Effect: 0%
PHBPU; 1-2 leaf, 24 d, 40 g a.i./ha
  Effect: 0%
PHBPU; 3-4 leaf, 14 d, 40 g a.i./ha
  Effect: 10%
GLXMA Merlin; 1-2 leaf, 24 d, 40 g a.i./ha
  Effect: 0%
GLXMA Merlin; [9]
  Effect: 50%
GLXMA Merlin; 3-4 leaf, 24 d, 20 g a.i./ha
  Effect: 40%
GLXMA Merlin; 1-2 leaf, (B1) alone 40 g a.i./ha
  Effect (%): 0%
GLXMA Merlin; 1-2 leaf, (B1) alone 80 g a.i./ha
  Effect (%): 10%
BRAPP; [1]
  Effect: 15%
BRAPP; [2]
  Effect: 10%
BRAPP; [3]
  Effect: 10%
BRAPP; 3-4 leaf, 14 d, 20 g a.i./ha
  Effect: 15%
BRAPP; 3-4 leaf, 14 d, 40 g a.i./ha
  Effect: 45%
BRAPP; 3-4 leaf, 24 d, 20 g a.i./ha
  Effect: 10%
BRAPP; [6]
  Effect (%): 10%
BRAPP; [10]
  Effect (%): 35%
BRAPP; [7]
  Effect (%): 15%
BRAPP; [8]
  Effect (%): 45%
EPHHL; [1]
  Effect: 45%
EPHHL; [2]
  Effect: 20%
EPHHL; [4]
  Effect: 65%
EPHHL; 3-4 leaf, 24 d, 20 g a.i./ha
  Effect: 20%
SORHA; [4]
  Effect: 10%
SORHA; 1-2 leaf, 14 d, 80 g a.i./ha
  Effect: 20%
SORHA; 1-2 leaf, 24 d, 80 g a.i./ha
  Effect: 10%
SORHA; [5]
  Effect: 20%
SORHA; [9]
  Effect: 20%
SORHA; 3-4 leaf, 14 d, 20 g a.i./ha
  Effect: 20%
SORHA; 3-4 leaf, 24 d, 20 g a.i./ha
  Effect: 0%
SORHA; SORHA, 1-2 leaf, assessment 24 d, (B1) alone 40 g a.i./ha
  Effect (%): 10%
SETVI; 80 g a.i./ha alone
  Effect: 10%
SETVI; 80 g a.i./ha
  Effect: 10%
SETVI; (B1) alone 40 g a.i./ha
  Effect (%): 50%
SETVI; (B1) alone 80 g a.i./ha
  Effect (%): 10%
SETFA; 14 d, 80 g a.i./ha
  Effect: 30%
SETFA; 24 d, 40 g a.i./ha
  Effect: 10%
SETFA; SETFA, assessment 24 d, (B1) alone 40 g a.i./ha
  Effect (%): 10%
